Laboratory results published in PMC11882969 (Nature Communications, 2025).
“And” between values parts separate entries of the source, which are not always exact repeats. Equal values may be shown once. Read-outs that look alike come from different tables or passages of the source.

Target: hCB2 (Homo sapiens, UniProt P34972)
Experiment: bioSensAll ebBRET signaling profiling, hCB2
Assay type: cell-based
Parameters: host or cells: HEK293SL cells, transient PEI transfection
Conditions: for G13 hCB2 / G15 hCB2 / Gq hCB2 / Gs hCB2: raw signal; for EC50: read-out: EC50 [95% CI]; for Emax: normalized to CP-55,940

Sequence of hCB2 (P34972 whole entry): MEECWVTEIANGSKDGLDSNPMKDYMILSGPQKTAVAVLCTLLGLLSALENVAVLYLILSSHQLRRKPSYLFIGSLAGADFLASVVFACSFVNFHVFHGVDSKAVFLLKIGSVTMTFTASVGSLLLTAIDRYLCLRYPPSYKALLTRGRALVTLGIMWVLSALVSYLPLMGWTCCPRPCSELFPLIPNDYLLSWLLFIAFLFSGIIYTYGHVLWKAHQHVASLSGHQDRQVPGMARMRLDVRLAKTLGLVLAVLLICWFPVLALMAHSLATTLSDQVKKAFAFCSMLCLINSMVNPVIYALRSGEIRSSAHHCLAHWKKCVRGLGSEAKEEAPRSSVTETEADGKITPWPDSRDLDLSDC

COC(=O)C(C)(NC(=O)c1cc(C)n(-c2cccc(C(F)(F)F)c2)n1)c1cccs1 (stereo not drawn) [‘4042]
G13 hCB2 (Log [Compound] (M) -5.05788): 372 | G15 hCB2 (Log [Compound] (M) -5.05788): 871 | Gq hCB2 (Log [Compound] (M) -5.05788): 1851 | Gs hCB2 (Log [Compound] (M) -5.05788): 9765 | G13 hCB2 (Log [Compound] (M) -5.47381): 454 | G15 hCB2 (Log [Compound] (M) -5.47381): 873 | Gq hCB2 (Log [Compound] (M) -5.47381): 1786 | Gs hCB2 (Log [Compound] (M) -5.47381): 9415 | G13 hCB2 (Log [Compound] (M) -5.89285): 417 | G15 hCB2 (Log [Compound] (M) -5.89285): 919 | Gq hCB2 (Log [Compound] (M) -5.89285): 1814 | Gs hCB2 (Log [Compound] (M) -5.89285): 9299 | G13 hCB2 (Log [Compound] (M) -6.31878): 379 | G15 hCB2 (Log [Compound] (M) -6.31878): 911 | Gq hCB2 (Log [Compound] (M) -6.31878): 1840 | Gs hCB2 (Log [Compound] (M) -6.31878): 9425 | G13 hCB2 (Log [Compound] (M) -6.72585): 366 | G15 hCB2 (Log [Compound] (M) -6.72585): 869 | Gq hCB2 (Log [Compound] (M) -6.72585): 1780 | Gs hCB2 (Log [Compound] (M) -6.72585): 9320 | G13 hCB2 (Log [Compound] (M) -7.14267): 378 | G15 hCB2 (Log [Compound] (M) -7.14267): 865 | Gq hCB2 (Log [Compound] (M) -7.14267): 1798 | Gs hCB2 (Log [Compound] (M) -7.14267): 9628 | G13 hCB2 (Log [Compound] (M) -7.55284): 351 | G15 hCB2 (Log [Compound] (M) -7.55284): 908 | Gq hCB2 (Log [Compound] (M) -7.55284): 1838 | Gs hCB2 (Log [Compound] (M) -7.55284): 9429 | G13 hCB2 (Log [Compound] (M) -8): 336 | G15 hCB2 (Log [Compound] (M) -8): 870 | Gq hCB2 (Log [Compound] (M) -8): 1691 | Gs hCB2 (Log [Compound] (M) -8): 9233 | G13 hCB2 (Log [Compound] (M) -8.22186): 337 | G15 hCB2 (Log [Compound] (M) -8.22186): 953 | Gq hCB2 (Log [Compound] (M) -8.22186): 1914 | Gs hCB2 (Log [Compound] (M) -8.22186): 10090 | G13 hCB2 (Log [Compound] (M) -8.39794): 386 | G15 hCB2 (Log [Compound] (M) -8.39794): 901 | Gq hCB2 (Log [Compound] (M) -8.39794): 1867 | Gs hCB2 (Log [Compound] (M) -8.39794): 9624 | G13 hCB2 (Log [Compound] (M) -8.68787): 351 | G15 hCB2 (Log [Compound] (M) -8.68787): 876 | Gq hCB2 (Log [Compound] (M) -8.68787): 1937 | Gs hCB2 (Log [Compound] (M) -8.68787): 9194 | G13 hCB2 (Log [Compound] (M) -9.15521): 367 | G15 hCB2 (Log [Compound] (M) -9.15521): 910 | Gq hCB2 (Log [Compound] (M) -9.15521): 1811 | Gs hCB2 (Log [Compound] (M) -9.15521): 9196 | G13 hCB2 (Log [Compound] (M) -9.61989): 345 | G15 hCB2 (Log [Compound] (M) -9.61989): 880 | Gq hCB2 (Log [Compound] (M) -9.61989): 1785 | Gs hCB2 (Log [Compound] (M) -9.61989): 9153 | G13 hCB2 (Log [Compound] (M) -10.0969): 341 | G15 hCB2 (Log [Compound] (M) -10.0969): 856 | Gq hCB2 (Log [Compound] (M) -10.0969): 1790 | Gs hCB2 (Log [Compound] (M) -10.0969): 9401 | G13 hCB2 (Log [Compound] (M) -10.5529): 309 | G15 hCB2 (Log [Compound] (M) -10.5529): 917 | Gq hCB2 (Log [Compound] (M) -10.5529): 1878 | Gs hCB2 (Log [Compound] (M) -10.5529): 9283 | G13 hCB2 (Log [Compound] (M) -11.0177): 377 | G15 hCB2 (Log [Compound] (M) -11.0177): 837 | Gq hCB2 (Log [Compound] (M) -11.0177): 1802 | Gs hCB2 (Log [Compound] (M) -11.0177): 9354 | G13 hCB2 (Log [Compound] (M) -11.4949): 335 | G15 hCB2 (Log [Compound] (M) -11.4949): 822 | Gq hCB2 (Log [Compound] (M) -11.4949): 1866 | Gs hCB2 (Log [Compound] (M) -11.4949): 8977 | G13 hCB2 (Log [Compound] (M) -11.9208): 361 | G15 hCB2 (Log [Compound] (M) -11.9208): 904 | Gq hCB2 (Log [Compound] (M) -11.9208): 1780 | Gs hCB2 (Log [Compound] (M) -11.9208): 8976 | G13 hCB2 (Log [Compound] (M) -12.3979): 355 | G15 hCB2 (Log [Compound] (M) -12.3979): 851 | Gq hCB2 (Log [Compound] (M) -12.3979): 1758 | Gs hCB2 (Log [Compound] (M) -12.3979): 8977 | G13 hCB2 (Log [Compound] (M) -12.8861): 299 | G15 hCB2 (Log [Compound] (M) -12.8861): 809 | Gq hCB2 (Log [Compound] (M) -12.8861): 1793 | Gs hCB2 (Log [Compound] (M) -12.8861): 9246 | G13 hCB2 (Log [Compound] (M) -13): 267 and 381 | G15 hCB2 (Log [Compound] (M) -13): 851 and 879 | Gq hCB2 (Log [Compound] (M) -13): 1807 and 1732 | Gs hCB2 (Log [Compound] (M) -13): 9386 and 9439 | EC50 (hCB2 Barr2 + GRK2): 5.5 nM | EC50 (hCB2 Gi1): 2.7 nM | EC50 (hCB2 Gi2): 1.3 nM | EC50 (hCB2 GoB): 2.5 nM | Emax (read-out: Emax [95% CI], hCB2 Barr2 + GRK2): 33% | Emax (read-out: Emax [95% CI], hCB2 Gi1): 82% | Emax (read-out: Emax [95% CI], hCB2 Gi2): 70% | Emax (read-out: Emax [95% CI], hCB2 GoB): 61% | Emax (read-out: Emax [95% CI], hCB2 Gz): 56%
